Values quoted from earlier work as cited in patent US11807631B2, “Herboxidiene derivatives and uses thereof” (Purdue Research Foundation, priority 2017, dated 2023).

Test system: human normal fibroblast cell line, W1-38

## COC(C(C)O)C(C)C1OC1(C)CC(C)/C=C/C=C(\C)C1OC(CC(=O)O)CCC1C (stereo not shown) [Herboxidiene/GEX1A]
  cell cycle arrest: induces both G1 and G2/M cell cycle arrest
